Laboratory results published in publication PMC6382696, “Drug Repurposing: The Anthelmintics Niclosamide and Nitazoxanide Are Potent TMEM16A Antagonists That Fully Bronchodilate Airways” (Frontiers in Pharmacology, 2019).
Several values for one entry are separate records, joined by “and”; a condition that tells them apart may be missing. Identical values can stand only once. Like-named read-outs stand apart in the source and are kept apart here.

Legend:
human bronchial rings = assay: Wire myograph bronchodilation of histamine pre-contracted human bronchial rings (Biopta)
Source text: Details of bronchodilator studies shown in Figure 5H, 6 and Supplementary Figure 40 are provided below as part of the end assay report on Study CUR011 by Lee Christie (Biopta). Donors with any of the following conditions were excluded from the study: asthma, COPD, emphysema, lung cancer, cystic fibrosis, pulmonary fibrosis, pulmonary hypertension, pneumonia. Donors were also excluded if they had smoked in the past 12 months. Non-transplantable lung tissue was acquired from organ donors post mortem. Any macroscopically diseased/necrotic tissue was rejected. […] Human airway rings were set up under isometric conditions on a wire myograph in order to examine the influence of the test articles on bronchodilation. In order to assess tissue viability, the airways were challenged with carbachol (10 μM) and then isoprenaline (10 μM) to assess their constriction and relaxation responses, respectively. […] Viable airways were pre-constricted with histamine (10 μM), then exposed to one of the following cumulative concentration response curves (CCRCs): positive control, vehicle (water, volume matched to positive control), test article, vehicle (DMSO concentration matched to test articles). At the end of each CCRC, theophylline (2.2 mM) was added to induce maximal relaxation of the tissue. […] Airways were re-tensioned to 1.0 – 1.5 g if the tension had dropped below 1.0 g during the first 30 min of equilibration. (b) Airways were exposed to carbachol (bath concentration 10 μM) in order to measure their contractile responses and then isoprenaline (10 μM) in order to assess their relaxation. Airways were washed out and allowed to return to baseline. (c) Airways were pre-constricted with histamine (10 μM) before conducting a CCRC to the test article, the positive control (isoprenaline), test article vehicle or positive control vehicle.

mouse tracheal rings = assay: Bronchodilation of mouse tracheal rings at differing levels of carbachol pre-contraction; settings: EC95 level of carbachol, normalized to theophylline
Experimental: Standard procedures as listed above were used to prepare, mount and Wake-Up tracheal rings and the concentrations of carbachol providing EC25, EC50, EC75, or EC95 levels of contraction for each ring was determined as described above.

COLO205 cells = assay: QPatch electrophysiology of endogenous calcium-activated chloride current in COLO205 cells; format: cell-based, human; settings: 170 nM free calcium
Source text: HEK293 cells stably expressing the TMEM16A (acd) variant were purchased from SB Drug Discovery. The HEK293 TMEM16A (abc) stable cell line was from ChanTest and COLO-205 cells were purchased from ATCC. The same standard buffers and recording conditions listed below were used for QPatch studies on all three cell lines.
Recording Solutions: were made weekly as below and stored at room temperature until used. It is recommended not to add ATP to internal solution until immediately before using on the QPatch. The external buffer (in mM) was 140 NaCl, 4 KCl, 2 CaCl2, 1 MgCl2, 10 HEPES, 10 Glucose, pH7.4, while the internal buffer (in mM) was 110 CsCl, 20 TEA-Cl, 5.374 CaCl2, 1.75 MgCl2, 10 EGTA, 10 HEPES, 4 Na2ATP, pH 7.2.
Once established in whole-cell configuration, cells were clamped to a holding potential (Vhold) of 0 mV on 48 well single hole patch plate. A standardized IV protocol was used to elicit ionic current through the TMEM16A chloride channel at 20 s intervals. Steady-state voltage pulses were from −100 mV to +100 mV in +20 mV steps for a duration of 500 ms. After each pulse the voltage was returned to −100 mV for 50 ms to obtain tail currents, and then returned to the holding potential of 0 mV until the beginning of the next sweep. Block of TMEM16A chloride current due to test article was measured at the +100 mV depolarization sweep of the third and final IV protocol run per concentration addition. This ensures a minimum of 60 s per concentration incubation before measuring current block. Currents were acquired at 10 kHz and filtered at 2 kHz, leak subtraction and Rseries were disabled. […]
A cumulative concentration response was measured where each cell is exposed to five concentrations of test article with a dilution factor of 1:5 (e.g., 0.048, 0.24, 1.2, 6, and 30 μM). Cells were recorded for ∼60 s per solution/compound addition. […] Recovery/washout was monitored for a final minute with a final external solution addition.
Peak outward current magnitude at 540 ms through 550 ms of the IV step was measured for each sweep at […]. […]

primary human ASM cells = assay: Methacholine-induced calcium flux in primary human ASM cells; format: cell-based; settings: methacholine 10 M (so in the source), read-out: IC50 block of methacholine calcium flux
Experimental: 1.1 Measuring antagonist effects on bronchial smooth muscle cell (BSMC) pro-contractile calcium flux.
Human BSMCs were obtained from Lonza, resuspended, cultured and serum starved for 24 hours as described for the histamine membrane potential assay. Compounds and dilutions were prepared in same manner, except they were serially diluted in Assay Buffer (2 mM CaCl2, 1 mM MgCl2, 4.5 mM KCl, 155 mM NaCl, 5 mM HEPES, 10 mM glucose, pH7.4) to 4X the final concentration. A Calcium Indicator Working Solution (10 ml) was prepared by adding 1ml BD PBX Signal Enhancer (Cat# 51 -9006254) and 10 µl of BD Calcium Indicator (BD Cat# 850000 resuspended in 100% DMSO) to 9 ml Assay Buffer. Following serum starvation of the BSMCs, culture media was aspirated off and 50µl of Calcium Indicator Working Solution was added t o each well of microtiter plate. Twenty-five microliters of the 4X serially diluted compounds were then added and cells were incubated with compounds for 30 minutes at room temperature. Twenty -five microliters of a 4X histamine or methacholine solution (where 1X reflects EC 80-EC100 concentration from earlier validation of aliquot of cells from same donor) was then added and fluorescence changes were measured by a FLIPR-Tetra or internal FlashFluor instrument. In some experiments the TMEM16A opener, Eact, was used in place of histamine or methacholine.

[1] = Homo sapiens, 10 μM histamine, read-out: EC50 bronchodilating histamine precontracted human airways
[2] = histamine pre-contracted, 10 μM

Row | Compound | EC50 (human bronchial rings; 10 μM histamine, read-out: EC50 bronchodilating histamine precontracted human airways) | EC50 (human bronchial rings; [1]) | time to steady-state relaxation of human bronchial rings (human bronchial rings; histamine pre-contracted, 1 μM) | time to steady-state relaxation of human bronchial rings (human bronchial rings; [2]) | relaxation of airway rings (mouse tracheal rings) | block of native chloride current in COLO205 cells (COLO205 cells) | IC50 (primary human ASM cells) | EC50 (human bronchial rings; histamine pre-contracted, Donor 1 Ring 1, Donor 1 Ring 2, Donor 2 Ring 1, read-out: EC50 relaxation of human bronchial rings, individual rings)
1 | O=C(Nc1ccc([N+](=O)[O-])cc1Cl)c1cc(Cl)ccc1O [Niclosamide] | 0.967 µM | 0.97 µM | ~92 min | ~50 min | roughly 100% |  |  | 
2 | N#Cc1c(C(F)(F)F)cc(O)n2c1nc1ccccc12 [1PBC] |  |  |  |  |  | fully blocked |  | 
3 | CCc1oc2ccccc2c1C(=O)c1cc(Br)c(O)c(Br)c1 [Benzbromarone] |  | 5.65 µM |  | 80 to 140 min | roughly 100% | fully blocked | 7 µM | 
4 | CC(C)(C)C1CCc2c(sc(NC(=O)c3ccco3)c2C(=O)O)C1 (stereo not drawn) [CaCCinh-A01] |  |  |  |  |  | fully blocked | 50 µM | 
5 | Oc1ccc(Cl)cc1Cc1cc(Cl)ccc1O [Dichlorophen] |  |  |  |  |  |  | 106 µM | 
6 | COc1cc([N+](=O)[O-])ccc1NC(=O)c1cc(Cl)c2ccccc2c1O [Cpd 4] |  | 3.45 µM |  | 50 − 125 min | roughly 100% |  |  | ~1.75 µM and ~6.3 µM and 3 µM
